This is an account of results in ChEMBL document CHEMBL2311345, “Facile synthesis and characterization of novel pyrazole-sulfonamides and their inhibition effects on human carbonic anhydrase isoenzymes” (Bioorg Med Chem, 2013).

The target in one assay is Carbonic anhydrase 1 (Homo sapiens, UniProt P00915). Briefly: Un-competitive inhibition of human erythrocytes carbonic anhydrase 1 esterase activity by Lineweaver-Burk plot analysis.
A further assay has as its target Carbonic anhydrase 2 (Homo sapiens, UniProt P00918). Briefly: Un-competitive inhibition of human erythrocytes carbonic anhydrase 2 esterase activity by Lineweaver-Burk plot analysis.

The structures appear in SMILES notation.

Sequence of Carbonic anhydrase 1 (P00915 whole entry): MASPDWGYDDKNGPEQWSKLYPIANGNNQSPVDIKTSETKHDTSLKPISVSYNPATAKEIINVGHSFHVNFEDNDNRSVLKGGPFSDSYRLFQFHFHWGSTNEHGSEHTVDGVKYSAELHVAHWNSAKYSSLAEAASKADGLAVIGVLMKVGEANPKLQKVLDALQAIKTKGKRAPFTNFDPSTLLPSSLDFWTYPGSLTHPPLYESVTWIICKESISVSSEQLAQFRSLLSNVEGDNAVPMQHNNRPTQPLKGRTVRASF

Take `CC(=O)/C(=N\Nc1cccc(-n2nc(C(=O)Nc3ccc(S(N)(=O)=O)cc3)c(C(=O)O)c2-c2ccccc2)c1)C(=O)c1ccccc1`: the affinity at Carbonic anhydrase 1 corresponds to a Ki of 62.3 nM.
With `NS(=O)(=O)c1ccc(NC(=O)c2nn(-c3cccc(/N=N/c4c(O)ccc5ccccc45)c3)c(-c3ccccc3)c2C(=O)O)cc1`, the Ki at Carbonic anhydrase 2 came out at 12.4 nM.

By Ki is commonly meant a dissociation constant, usually derived from enzyme kinetics or from competition with a known ligand. Read a low Ki as a stronger hold on the target.
